From patent US7365095B2, “Chromane and chromene derivatives and uses thereof” (Wyeth, priority 2005, dated 2008)
Where a name gives a salt, the structure may show the parent alone.

Assays:
[1] = target: T1, human 5-hydroxytryptamine-2C (h5-HT2C) receptor (Homo sapiens, UniProt P28335); assay: [125I]DOI binding to membranes of CHO cells expressing h5-HT2C receptor; details: read-out: 5-HT2C Binding Ki avg
T1 construct: expressed in transfected cells; host or cells: CHO (Chinese Hamster Ovary) cells; membrane preparation
T1 sequence (P28335 33-458): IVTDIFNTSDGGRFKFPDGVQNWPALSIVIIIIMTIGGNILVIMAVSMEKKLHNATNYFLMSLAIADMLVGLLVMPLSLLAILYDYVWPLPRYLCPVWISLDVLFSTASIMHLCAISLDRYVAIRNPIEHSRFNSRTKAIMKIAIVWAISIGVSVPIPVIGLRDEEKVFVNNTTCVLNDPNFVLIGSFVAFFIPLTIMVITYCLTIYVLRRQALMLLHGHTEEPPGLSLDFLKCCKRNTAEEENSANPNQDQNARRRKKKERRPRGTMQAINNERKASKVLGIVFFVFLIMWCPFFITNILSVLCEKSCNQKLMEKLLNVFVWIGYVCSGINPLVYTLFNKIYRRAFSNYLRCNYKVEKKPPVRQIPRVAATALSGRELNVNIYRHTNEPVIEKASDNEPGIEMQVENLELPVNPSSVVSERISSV

human 5-HT2C receptor = target: T2, human 5-HT2C receptor (Homo sapiens, UniProt P28335); assay: calcium mobilization (FLIPR) in CHO cells stably expressing the human 5-HT2C receptor; type: cell-based; details: for Emax: CHO, read-out: 5-HT2C Function EMax (%); for EC50: calcium mobilization, read-out: 5-HT2C Function EC50
T2 sequence (P28335 33-458): T1 sequence (P28335 33-458)

Compound	Ki [1] [nM]	Emax (human 5-HT2C receptor) [%]	EC50 (human 5-HT2C receptor) [nM]
NC[C@@H]1CCc2cccc(-c3ccccc3Cl)c2O1 [Compound 27, {[(2S)-8-(2-chlorophenyl)-3,4-dihydro-2H-chromen-2-yl]methyl}amine hydrochloride]	10 to 50	80	50 to 200
NC[C@@H]1CCc2cccc(-c3cc(Cl)ccc3Cl)c2O1 [Compound 28, {[(2S)-8-(2,5-dichlorophenyl)-3,4-dihydro-2H-chromen-2-yl]methyl}amine hydrochloride]	10 to 50	100	50 to 200
NC[C@@H]1CCc2cccc(-c3ccc(Cl)cc3Cl)c2O1 [Compound 29, {[(2S)-8-(2,4-dichlorophenyl)-3,4-dihydro-2H-chromen-2-yl]methyl}amine hydrochloride]	10 to 50	80	> 200
COc1ccc(-c2cccc3c2O[C@H](CN)CC3)c(OC)c1 [Compound 32, {[(2S)-8-(2,4-dimethoxyphenyl)-3,4-dihydro-2H-chromen-2-yl]methyl}amine hydrochloride]	10 to 50	90	50 to 200
Cc1ccccc1-c1cccc2c1O[C@H](CN)CC2 [Compound 33, {[(2S)-8-(2-methylphenyl)-3,4-dihydro-2H-chromen-2-yl]methyl}amine hydrochloride]	10 to 50	80	> 200
CNC[C@H]1CCc2cccc(-c3c(Cl)cccc3Cl)c2O1 [Compound 35, {[(2R)-8-(2,6-dichlorophenyl)-3,4-dihydro-2H-chromen-2-yl]methyl}methylamine hydrochloride]	≤ 10	90	< 50
NCC1CCc2cc(F)cc(-c3ccccc3Cl)c2O1 (stereo not drawn) [Compound 37, {[8-(2-chlorophenyl)-6-fluoro-3,4-dihydro-2H-chromen-2-yl]methyl}amine hydrochloride]	≤ 10	100	< 50
COc1ccccc1-c1cc(F)cc2c1O[C@@H](CN)CC2 [Compound 38, 1-[(2R)-6-fluoro-8-(2-methoxyphenyl)-3,4-dihydro-2H-chromen-2-yl]methanamine hydrochloride]	≤ 10	80	< 50
CNC[C@H]1CCc2cc(F)cc(-c3ccccc3Cl)c2O1 [Compound 39, {[(2R)-8-(2-chlorophenyl)-6-fluoro-3,4-dihydro-2H-chromen-2-yl]methyl}methylamine hydrochloride]	≤ 10	100	< 50
CNC[C@H]1CCc2cc(F)cc(-c3cc(Cl)ccc3Cl)c2O1 [Compound 40, {[(2R)-8-(2,5-dichlorophenyl)-6-fluoro-3,4-dihydro-2H-chromen-2-yl]methyl}methylamine hydrochloride]	≤ 10	90	< 50
CNC[C@H]1CCc2cc(F)cc(-c3ccc(Cl)cc3Cl)c2O1 [Compound 41, {[(2R)-8-(2,4-dichlorophenyl)-6-fluoro-3,4-dihydro-2H-chromen-2-yl]methyl}methylamine hydrochloride]	10 to 50	90	50 to 200
CNC[C@H]1CCc2cc(F)cc(-c3ccccc3)c2O1 [Compound 42, {[(2R)-6-fluoro-8-phenyl-3,4-dihydro-2H-chromen-2-yl]methyl}methylamine hydrochloride]	≤ 10	90	50 to 200
CNC[C@H]1CCc2cc(F)cc(-c3ccccc3C)c2O1 [Compound 43, {[(2R)-6-fluoro-8-(2-methylphenyl)-3,4-dihydro-2H-chromen-2-yl]methyl}methylamine hydrochloride]	≤ 10	90	50 to 200
CNC[C@H]1CCc2cc(F)cc(-c3cccnc3)c2O1 [Compound 44, {[(2R)-6-fluoro-8-pyridin-3-yl-3,4-dihydro-2H-chromen-2-yl]methyl}methylamine hydrochloride]	10 to 50	80	> 200
NC[C@H]1CCc2cc(F)cc(-c3ccccc3Cl)c2O1 [Compound 45, {[(2R)-8-(2-chlorophenyl)-6-fluoro-3,4-dihydro-2H-chromen-2-yl]methyl}amine hydrochloride]	≤ 10	90	< 50
NC[C@H]1CCc2cc(F)cc(-c3cc(Cl)ccc3Cl)c2O1 [Compound 46, {[(2R)-8-(2,5-dichlorophenyl)-6-fluoro-3,4-dihydro-2H-chromen-2-yl]methyl}amine hydrochloride]	10 to 50	90	> 200
NC[C@H]1CCc2cc(F)cc(-c3ccc(Cl)cc3Cl)c2O1 [Compound 47, {[(2R)-8-(2,4-dichlorophenyl)-6-fluoro-3,4-dihydro-2H-chromen-2-yl]methyl}amine hydrochloride]	> 50	90	50 to 200

Compound	Ki [1] [nM]	Emax (human 5-HT2C receptor) [%]	EC50 (human 5-HT2C receptor) [nM]
NC[C@H]1CCc2cc(F)cc(-c3ccccc3)c2O1 [Compound 48, {[(2R)-6-fluoro-8-phenyl-3,4-dihydro-2H-chromen-2-yl]methyl}amine hydrochloride]	≤ 10	90	50 to 200
Cc1ccccc1-c1cc(F)cc2c1O[C@@H](CN)CC2 [Compound 49, {[(2R)-6-fluoro-8-(2-methylphenyl)-3,4-dihydro-2H-chromen-2-yl]methyl}amine hydrochloride]	≤ 10	90	< 50
NC[C@H]1CCc2cc(F)cc(-c3cccnc3)c2O1 [Compound 50, {[(2R)-6-fluoro-8-pyridin-3-yl-3,4-dihydro-2H-chromen-2-yl]methyl}amine hydrochloride]	10 to 50	90	< 50
NC[C@@H]1CCc2cc(F)cc(-c3ccccc3Cl)c2O1 [Compound 51, {[(2S)-8-(2-chlorophenyl)-6-fluoro-3,4-dihydro-2H-chromen-2-yl]methyl}amine hydrochloride]	10 to 50	80	< 50
Cc1ccccc1-c1cc(F)cc2c1O[C@H](CN)CC2 [Compound 53, {[(2S)-6-fluoro-8-(2-methylphenyl)-3,4-dihydro-2H-chromen-2-yl]methyl}amine hydrochloride]	10 to 50	70	50 to 200
NC[C@@H]1CCc2cc(F)cc(-c3cc(Cl)ccc3Cl)c2O1 [Compound 55, {[(2S)-8-(2,5-dichlorophenyl)-6-fluoro-3,4-dihydro-2H-chromen-2-yl]methyl}amine hydrochloride]	≤ 10	70	50 to 200
NC[C@@H]1CCc2cc(F)cc(-c3ccc(Cl)cc3Cl)c2O1 [Compound 56, {[(2S)-8-(2,4-dichlorophenyl)-6-fluoro-3,4-dihydro-2H-chromen-2-yl]methyl}amine hydrochloride]	10 to 50	80	50 to 200
NC[C@H]1CCc2cc(F)cc(-c3c(Cl)cccc3Cl)c2O1 [Compound 57, {[(2R)-8-(2,6-dichlorophenyl)-6-fluoro-3,4-dihydro-2H-chromen-2-yl]methyl}amine hydrochloride]	≤ 10	80	< 50
CCNC[C@H]1CCc2cc(F)cc(-c3c(Cl)cccc3Cl)c2O1 [Compound 58, N-{[(2R)-8-(2,6-dichlorophenyl)-6-fluoro-3,4-dihydro-2H-chromen-2-yl]methyl}ethanamine hydrochloride]	≤ 10	60	< 50
CNC[C@H]1C=Cc2cccc(-c3c(Cl)cccc3Cl)c2O1 [Compound 59, {[(2R)-8-(2,6-dichlorophenyl)-2H-chromen-2-yl]methyl}methylamine hydrochloride]	≤ 10	90	< 50
NC[C@H]1C=Cc2cccc(-c3c(Cl)cccc3Cl)c2O1 [Compound 60, {[(2R)-8-(2,6-dichlorophenyl)-2H-chromen-2-yl]methyl}amine hydrochloride]	≤ 10	100	< 50
CNCC1C=Cc2cc(F)cc(-c3ccccc3Cl)c2O1 (stereo not drawn) [Compound 61, {[8-(2-chlorophenyl)-6-fluoro-2H-chromen-2-yl]methyl}methylamine hydrochloride]	≤ 10	90	< 50
NCC1C=Cc2cc(F)cc(-c3ccccc3Cl)c2O1 (stereo not drawn) [Compound 62, {[8-(2-chlorophenyl)-6-fluoro-2H-chromen-2-yl]methyl}amine hydrochloride]	10 to 50	100	< 50
NC[C@H]1C=Cc2cc(F)cc(-c3cc(Cl)ccc3Cl)c2O1 [Compound 63, {[(2R)-8-(2,5-dichlorophenyl)-6-fluoro-2H-chromen-2-yl]methyl}amine hydrochloride]	≤ 10	90	< 50
NC[C@H]1C=Cc2cc(F)cc(-c3ccccc3Cl)c2O1 [Compound 64, {[(2R)-8-(2-chlorophenyl)-6-fluoro-2H-chromen-2-yl]methyl}amine hydrochloride]	≤ 10	90	< 50
COc1ccccc1-c1cc(F)cc2c1O[C@@H](CN)C=C2 [Compound 65, {[(2R)-6-fluoro-8-(2-methoxyphenyl)-2H-chromen-2-yl]methyl}amine hydrochloride]	≤ 10	80	< 50
